These compounds were tested against JAK1 (Homo sapiens (Human), UniProt P23458) (assay: Jak biochemical HTRF assay, JAK1). Conditions: recombinant purified GST-tagged catalytic domain; HTRF format; [ATP] 31.8 μM.
Sequence of JAK1 (P23458 875-1153): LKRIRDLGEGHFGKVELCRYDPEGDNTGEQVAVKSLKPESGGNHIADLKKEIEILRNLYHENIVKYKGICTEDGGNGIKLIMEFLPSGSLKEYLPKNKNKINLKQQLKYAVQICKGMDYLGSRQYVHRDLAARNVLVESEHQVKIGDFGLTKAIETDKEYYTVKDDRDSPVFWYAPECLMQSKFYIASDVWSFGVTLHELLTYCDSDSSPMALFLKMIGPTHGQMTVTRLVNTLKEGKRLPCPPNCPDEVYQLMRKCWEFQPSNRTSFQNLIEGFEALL
Excerpt: Jak Biochemical HTRF Assay Protocol
Subsequent reagent additions employed an Agilent Bravo.
`CC(C)(C)CCOC(=O)N1CC[C@@H](C#N)C(n2cc(C(N)=O)c(Nc3ccc(F)cc3)n2)C1` (mixture of isomers) [Example 4, 3,3-Dimethylbutyl(3S,4R and 3R,4S)-3-{4-carbamoyl-3-[(4-fluorophenyl)amino]-1H-pyrazol-1-yl}-4-cyanopiperidine-1-carboxylate] showed an IC50 of 0.008 µM. For `N#C[C@@H]1CN(C(=O)OCCN2CCOCC2)CC[C@H]1n1cc(C(N)=O)c(Nc2ccc(F)cc2)n1` (racemic) [Example 5-4, 2-morpholin-4-ylethyl (3R,4R and 3S,4S)-4-{4-carbamoyl-3-[(4-fluorophenyl)amino]-1H-pyrazol-1-yl}-3-cyanopiperidine-1-carboxylate], the IC50 was 0.029 µM. `CC(C)(C#N)COC(=O)N1CC[C@@H](n2cc(C(N)=O)c(Nc3ccc(F)cc3)n2)[C@H](C#N)C1` (racemic) [Example 5-6, 2-cyano-2-methylpropyl (3R,4R and 3S,4S)-4-{4-carbamoyl-3-[(4-fluorophenyl)amino]-1H-pyrazol-1-yl}-3-cyanopiperidine-1-carboxylate] was tested, and the IC50 was 0.015 µM. Compound `N#C[C@@H]1CN(C(=O)OC2CCCC2)CC[C@H]1n1cc(C(N)=O)c(Nc2ccc(F)cc2)n1` (racemic) [Example 5-11, cyclopentyl (3R,4R and 3S,4S)-4-{4-carbamoyl-3-[(4-fluorophenyl)amino]-1H-pyrazol-1-yl}-3-cyanopiperidine-1-carboxylate] has an IC50 of 0.029 µM. With `N#C[C@@H]1CN(C(=O)OC2CCOCC2)CC[C@H]1n1cc(C(N)=O)c(Nc2ccc(F)cc2)n1` (racemic) [Example 5-13, tetrahydro-2H-pyran-4-yl (3R,4R and 3S,4S)-4-{4-carbamoyl-3-[(4-fluorophenyl)amino]-1H-pyrazol-1-yl}-3-cyanopiperidine-1-carboxylate] the IC50 was 0.02 µM. Compound `N#C[C@@H]1CN(C(=O)OCCN2CCCC2=O)CC[C@H]1n1cc(C(N)=O)c(Nc2ccc(F)cc2)n1` (racemic) [Example 5-15, 2-(2-oxopyrrolidin-1-yl)ethyl (3R,4R and 3S,4S)-4-{4-carbamoyl-3-[(4-fluorophenyl)amino]-1H-pyrazol-1-yl}-3-cyanopiperidine-1-carboxylate] has an IC50 of 0.019 µM. Compound `N#C[C@@H]1CN(C(=O)OCC(F)F)CC[C@H]1n1cc(C(N)=O)c(Nc2ccc(F)cc2)n1` (racemic) [Example 5-16, 2,2-difluoroethyl (3R,4R and 3S,4S)-4-{4-carbamoyl-3-[(4-fluorophenyl)amino]-1H-pyrazol-1-yl}-3-cyanopiperidine-1-carboxylate] has an IC50 of 0.008 µM. Work on `CC(C)(C)COC(=O)N1CC[C@@H](n2cc(C(N)=O)c(Nc3ccc(F)cc3)n2)[C@H](C#N)C1` (racemic) [Example 5-18, 2,2-dimethylpropyl (3R,4R and 3S,4S)-4-{4-carbamoyl-3-[(4-fluorophenyl)amino]-1H-pyrazol-1-yl}-3-cyanopiperidine-1-carboxylatc] yielded an IC50 of 0.132 µM. Compound `CCOC(=O)N1CC[C@@H](n2cc(C(N)=O)c(Nc3ccc(F)cc3)n2)[C@H](C#N)C1` (racemic) [Example 5-23, ethyl (3R,4R and 3S,4S)-4-{4-carbamoyl-3-[(4-fluorophenyl)amino]-1H-pyrazol-1-yl}-3-cyanopiperidine-1-carboxylate] has an IC50 of 0.01 µM. `N#C[C@@H]1CN(C(=O)OC2CCOC2)CC[C@H]1n1cc(C(N)=O)c(Nc2ccc(F)cc2)n1` (mixture of isomers) [Example 5-25, tetrahydrofuran-3-yl (3R,4R and 3S,4S)-4-{4-carbamoyl-3-[(4-fluorophenyl)amino]-1H-pyrazol-1-yl}-3-cyanopiperidine-1-carboxylate] was tested, and the IC50 was 0.012 µM. `CC(C)(COC(=O)N1CC[C@@H](n2cc(C(N)=O)c(Nc3ccc(F)cc3)n2)[C@H](C#N)C1)n1cccn1` (racemic) [Example 5-27, 2-methyl-2-(1H-pyrazol-1-yl)propyl (3R,4R and 3S,4S)-4-{4-carbamoyl-3-[(4-fluorophenyl)amino]-1H-pyrazol-1-yl}-3-cyanopiperidine-1-carboxylate] was tested, and the IC50 was 0.092 µM. With `N#C[C@@H]1CN(C(=O)OCC(F)(F)F)CC[C@H]1n1cc(C(N)=O)c(Nc2ccc(F)cc2)n1` (racemic) [Example 5-28, 2,2,2-trifluoroethyl (3R,4R and 3S,4S)-4-{4-carbamoyl-3-[(4-fluorophenyl)amino]-1H-pyrazol-1-yl}-3-cyanopiperidine-1-carboxylate] the IC50 was 0.01 µM. In the case of `CCOC(=O)COC(=O)N1CC[C@@H](n2cc(C(N)=O)c(Nc3ccc(F)cc3)n2)[C@H](C#N)C1` (racemic) [Example 5-38, 2-ethoxy-2-oxoethyl (3R,4R and 3S,4S)-4-{4-carbamoyl-3-[(4-fluorophenyl)amino]-1H-pyrazol-1-yl}-3-cyanopiperidine-1-carboxylate], the IC50 is reported as 0.003 µM. `N#CCC1(COC(=O)N2CC[C@@H](n3cc(C(N)=O)c(Nc4ccc(F)cc4)n3)[C@H](C#N)C2)CC1` (racemic) [Example 5-39, [1-(cyanomethyl)cyclopropyl]methyl (3R,4R and 3S,4S)-4-{4-carbamoyl-3-[(4-fluorophenyl)amino]-1H-pyrazol-1-yl}-3-cyanopiperidine-1-carboxylate] showed an IC50 of 0.025 µM. `CCOC(=O)N1CC[C@H](n2cc(C(N)=O)c(Nc3ccc(F)cc3)n2)[C@H](C#N)C1` (racemic) [Example 5-44, ethyl (3R,4S and 3S,4R)-4-{4-carbamoyl-3-[(4-fluorophenyl)amino]-1H-pyrazol-1-yl}-3-cyanopiperidine-1-carboxylate] was tested, and the IC50 was 0.2 µM. `N#C[C@@H]1CN(C(=O)OC2CCCC2)CC[C@@H]1n1cc(C(N)=O)c(Nc2ccc(F)cc2)n1` (racemic) [Example 5-49, cyclopentyl (3R,4S and 3S,4R)-4-{4-carbamoyl-3-[(4-fluorophenyl)amino]-1H-pyrazol-1-yl}-3-cyanopiperidine-1-carboxylate] gave an IC50 of 0.257 µM. `CC(C)(C)COC(=O)N1CC[C@H](n2cc(C(N)=O)c(Nc3ccc(F)cc3)n2)[C@H](C#N)C1` (racemic) [Example 5-50, 2,2-dimethylpropyl (3R,4S and 3S,4R)-4-{4-carbamoyl-3-[(4-fluorophenyl)amino]-1H-pyrazol-1-yl}-3-cyanopiperidine-1-carboxylate] gave an IC50 of 0.625 µM. For `N#C[C@@H]1CN(C(=O)OC2CCOC2)CC[C@@H]1n1cc(C(N)=O)c(Nc2ccc(F)cc2)n1` (mixture of isomers) [Example 5-51, tetrahydrofuran-3-yl (3R,4S and 3S,4R)-4-{4-carbamoyl-3-[(4-fluorophenyl)amino]-1H-pyrazol-1-yl}-3-cyanopiperidine-1-carboxylate], the IC50 was 0.212 µM. Work on `CC(C)(COC(=O)N1CC[C@H](n2cc(C(N)=O)c(Nc3ccc(F)cc3)n2)[C@H](C#N)C1)n1cccn1` (racemic) [Example 5-53, 2-methyl-2-(1H-pyrazol-1-yl)propyl (3R,4S and 3S,4R)-4-{4-carbamoyl-3-[(4-fluorophenyl)amino]-1H-pyrazol-1-yl}-3-cyanopiperidine-1-carboxylate] yielded an IC50 of 0.445 µM. `CCOC(=O)COC(=O)N1CC[C@H](n2cc(C(N)=O)c(Nc3ccc(F)cc3)n2)[C@H](C#N)C1` (racemic) [Example 5-59, 2-ethoxy-2-oxoethyl (3R,4S and 3S,4R)-4-{4-carbamoyl-3-[(4-fluorophenyl)amino]-1H-pyrazol-1-yl}-3-cyanopiperidine-1-carboxylate] was tested, and the IC50 was 0.323 µM. `N#C[C@@H]1CN(C(=O)OC2CCOCC2)CC[C@@H]1n1cc(C(N)=O)c(Nc2ccc(F)cc2)n1` (racemic) [Example 5-60, tetrahydro-2H-pyran-4-yl (3R,4S and 3S,4R)-4-{4-carbamoyl-3-[(4-fluorophenyl)amino]-1H-pyrazol-1-yl}-3-cyanopiperidine-1-carboxylate] gave an IC50 of 0.358 µM. With `N#CCC1(COC(=O)N2CC[C@H](n3cc(C(N)=O)c(Nc4ccc(F)cc4)n3)[C@H](C#N)C2)CC1` (racemic) [Example 5-64, [1-(cyanomethyl)cyclopropyl]methyl (3R,4S and 3S,4R)-4-{4-carbamoyl-3-[(4-fluorophenyl)amino]-1H-pyrazol-1-yl}-3-cyanopiperidine-1-carboxylate] the IC50 was 0.44 µM. In the case of `N#C[C@@H]1CN(C(=O)OCC(F)F)CC[C@@H]1n1cc(C(N)=O)c(Nc2ccc(F)cc2)n1` (racemic) [Example 5-65, 2,2-difluoroethyl (3R,4S and 3S,4R)-4-{4-carbamoyl-3-[(4-fluorophenyl)amino]-1H-pyrazol-1-yl}-3-cyanopiperidine-1-carboxylate], the IC50 is reported as 0.083 µM. Compound `N#C[C@@H]1CN(C(=O)OCC(F)(F)F)CC[C@@H]1n1cc(C(N)=O)c(Nc2ccc(F)cc2)n1` (racemic) [Example 5-66, 2,2,2-trifluoroethyl (3R,4S and 3S,4R)-4-{4-carbamoyl-3-[(4-fluorophenyl)amino]-1H-pyrazol-1-yl}-3-cyanopiperidine-1-carboxylate] has an IC50 of 0.084 µM. Work on `N#C[C@@H]1CCN(C(=O)OCC(F)(F)F)CC1n1cc(C(N)=O)c(Nc2ccc(F)cc2)n1` (mixture of isomers) [Example 5-78, 2,2,2-trifluoroethyl (3S,4R and 3R,4S)-3-{4-carbamoyl-3-[(4-fluorophenyl)amino]-1H-pyrazol-1-yl}-4-cyanopiperidine-1-carboxylate] yielded an IC50 of 0.004 µM. With `N#C[C@@H]1CCN(C(=O)OC2CCOCC2)CC1n1cc(C(N)=O)c(Nc2ccc(F)cc2)n1` (mixture of isomers) [Example 5-85, tetrahydro-2H-pyran-4-yl (3S,4R and 3R,4S)-3-{4-carbamoyl-3-[(4-fluorophenyl)amino]-1H-pyrazol-1-yl}-4-cyanopiperidine-1-carboxylate] the IC50 was 0.006 µM. Compound `N#C[C@@H]1CCN(C(=O)OCCN2CCOCC2)CC1n1cc(C(N)=O)c(Nc2ccc(F)cc2)n1` (mixture of isomers) [Example 5-87, 2-morpholin-4-ylethyl (3S,4R and 3R,4S)-3-{4-carbamoyl-3-[(4-fluorophenyl)amino]-1H-pyrazol-1-yl}-4-cyanopiperidine-1-carboxylate] has an IC50 of 0.004 µM. For `N#C[C@@H]1CCN(C(=O)OCCC2CC2)CC1n1cc(C(N)=O)c(Nc2ccc(F)cc2)n1` (mixture of isomers) [Example 5-91, 2-cyclopropylethyl (3S,4R and 3R,4S)-3-{4-carbamoyl-3-[(4-fluorophenyl)amino]-1H-pyrazol-1-yl}-4-cyanopiperidine-1-carboxylate], the IC50 was 0.001 µM.

Reference: patent US9394282B2, “Pyrazole carboxamides as Janus kinase inhibitors” (Merck Sharp & Dohme Corp., priority 2011, dated 2016)
